# Results: paper PMC8981563 (RSC Advances, 2022)
# Target: T1, human GPR120 (Homo sapiens, UniProt Q5NUL3)
# T1 sequence (Q5NUL3 1-361): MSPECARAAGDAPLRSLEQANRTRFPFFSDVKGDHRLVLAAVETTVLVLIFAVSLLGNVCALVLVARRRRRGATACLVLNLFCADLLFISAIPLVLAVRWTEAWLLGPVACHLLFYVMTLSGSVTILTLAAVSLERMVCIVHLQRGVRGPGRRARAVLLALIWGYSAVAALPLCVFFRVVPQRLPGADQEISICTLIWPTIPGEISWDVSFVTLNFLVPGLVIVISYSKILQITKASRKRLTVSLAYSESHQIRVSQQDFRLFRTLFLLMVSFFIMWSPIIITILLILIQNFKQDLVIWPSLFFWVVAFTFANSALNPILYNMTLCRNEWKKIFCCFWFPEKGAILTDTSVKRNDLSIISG
# Experiment: Ca2+ influx activity of CHO cells expressing human GPR120
# Type: cell-based
row,SMILES,EC50 [nM]
1,"Cc1ccc(-c2ccc(F)cc2COc2ccc(CC3SC(=O)NC3=O)c(F)c2F)cc1 (stereo not shown) [Compound 8g, 5-(2,3-Difluoro-4-((4-fluoro-4′-methyl-[1,1′-biphenyl]-2-yl)methoxy)benzyl)thiazolidine-2,4-dione]",142 ± 12.5
2,"Cc1ccc(-c2ccc(F)cc2COc2ccc(CC3SC(=O)NC3=O)cc2F)cc1 (stereo not shown) [Compound 7g, 5-(3-Fluoro-4-((4-fluoro-4′-methyl-[1,1′-biphenyl]-2-yl)methoxy)benzyl)thiazolidine-2,4-dione]",276 ± 20.5
3,"Cc1ccc(-c2ccc(F)cc2COc2ccc(CC3SC(=O)NC3=O)c(C)c2)cc1 (stereo not shown) [Compound 2g, 5-(4-((4-Fluoro-4′-methyl-[1,1′-biphenyl]-2-yl)methoxy)-2-methylbenzyl)thiazolidine-2,4-dione]",134 ± 11.8
4,"Cc1ccc(-c2ccc(F)cc2COc2ccc(CC3SC(=O)NC3=O)cc2C)cc1 (stereo not shown) [Compound 6g, 5-(4-((4-Fluoro-4′-methyl-[1,1′-biphenyl]-2-yl)methoxy)-3-methylbenzyl)thiazolidine-2,4-dione]",461 ± 36.1
5,"Cc1ccc(-c2ccc(F)cc2COc2ccc(CC3SC(=O)NC3=O)cc2)cc1 (stereo not shown) [Compound 1g, 5-(4-((4-Fluoro-4′-methyl-[1,1′-biphenyl]-2-yl)methoxy)benzyl)thiazolidine-2,4-dione]",182 ± 13.2
6,"Cc1ccc(-c2ccc(F)cc2COc2cc(F)c(CC3SC(=O)NC3=O)c(F)c2)cc1 (stereo not shown) [Compound 9g, 5-(2,6-Difluoro-4-((4-fluoro-4′-methyl-[1,1′-biphenyl]-2-yl)methoxy)benzyl)thiazolidine-2,4-dione]",137 ± 16.3
7,"COc1cc(OCc2cc(F)ccc2-c2ccc(C)cc2)ccc1CC1SC(=O)NC1=O (stereo not shown) [Compound 3g, 5-(4-((4-Fluoro-4′-methyl-[1,1′-biphenyl]-2-yl)methoxy)-2-methoxybenzyl)thiazolidine-2,4-dione]",122 ± 13.1
